In paper PMC7587333, “Synthesis, Molecular Docking, and In Vitro Boron Neutron Capture Therapy Assay of Carboranyl Sinomenine” (Molecules, 2020):
Read-outs that look alike come from different tables or passages of the source.

How the values were obtained:
rat C6 glioma cells [1] = test system: rat C6 glioma cells; set-up: method as in PMID 31260876; conditions: cited from earlier work
rat FLS cells [2] = test system: rat FLS cells; set-up: method as in PMID 15980490; conditions: cited from earlier work
malignant cells = conditions: background statement, no reference given; cited from earlier work
rat C6 gliosarcoma cells = assay: In vitro survival study (BNCT, thermal neutron irradiation, colony formation), C6 cells; assay type: cell-based; conditions: C6 gliosarcoma tumor cells
Description: (§1) The preliminary in vitro killing effects of compound 3 were examined by using rat C6 gliosarcoma tumor cells and fibroblast-like synoviocytes (FLS) cells, respectively. The in vitro survival study was completed with the thermal neutron fluence ranging from 0 to 4.2 × 10^12 n/cm^2. The γ-ray dose presented in the experiment was monitored by thermoluminescent dosimeters (TLDs) attached to the tubes and ranged from 0 to 5 Sv. […] A low surviving fraction of around 0.01 was obtained by compound 3 after irradiation for 50 min.
(§2) The in vitro assessments were carried out according to methods reported in the literature. […] The inability of cells to adhere to Teflon allows precise quantitative manipulation of cells without trypsinization. […] The thermal neutron fluence was determined by averaging the activity of two gold films symmetrically attached to the Teflon tube surface along the thermal neutron axis. […] The neutron absorbed dose (Gy) was calculated using the flux-to-dose conversion factor [39, 40]. […] The γ-ray dose was monitored by thermoluminescent dosimeters (TLDs) (Kyoto, Japan) attached to the tubes, and it ranged from 0 to 5 Sv. […] The colonies were fixed and stained with a 10% formaldehyde/1% toluidine blue solution and then counted microscopically.
(§3) The in vitro BNCS was carried out in triplicate. […] The significance of the differences in survival rates was assessed by Student’s t-test. […]

[3] = test system: rat fibroblast-like synoviocytes (FLS) cells; assay: In vitro survival study (BNCS, thermal neutron irradiation, colony formation), FLS cells; assay type: cell-based; conditions: same operating conditions as L-BPA
Description: as §1, §2, §3

rat FLS cells [4] = assay: Cytotoxicity study, standard MTT assay; assay type: cell-based; conditions: 3 days of continuous exposure, no irradiation, read-out: IC50 (growth inhibition, cytotoxicity)
Method: The IC50 (moles/liter, M), the concentration that inhibited the growth of rat FLS cells by 50% after 3 days of continuous exposure, was determined using the standard MTT assay. Suspensions of 4.9 × 10^5 of rat fibroblast-like synoviocytes cells /200 μL MEM containing 20% FCS were incubated for 3 days using 96-well culture plates with various concentrations of the samples in dimethyl sulfoxide (DMSO). The damaged cells were detected at 490 nm optical absorbance by Aqueous One Solution Cell Proliferation Assay.
Figure S-4. 1H NMR of 3 in DMSO-d6.
2. Cytotoxicity study. For IC50 analysis, the standard MTT method was used to analyze IC50 of compound 3. The IC50 determinations were performed in the presence of serial dilutions of inhibitor (1000 μM to 3.906 µM, 1% DMSO, final) in complete reaction buffer and incubated for […].
Figure S-5. IC50 dose responsive curve of 3 for rat FLS cells. […]

rat C6 glioma cells [5] = assay: Uptake of boron by rat C6 glioma cells (ICP-AES); assay type: cell-based; conditions: 24 h culture with boron agent
Description: (§4) The rat C6 glioma cells and fibroblast-like synoviocytes (FLS) cells were used to conduct the boron uptake of 3. The boron uptakes of clinically used L-BPA and BSH were also listed for comparation. The results reveal that 3 was able to permeate both C6 glioma cells and FLS cells. […] The higher membrane permeability provides enhanced boron concentration in the cell lines. […] Nevertheless, the detailed mechanism of 3 crossing cell membrane warrants further investigation.
(§5) According to literature, 3.7 × 10^8 rat FLS cells or 2.6 × 10^7 rat C6 glioma cells were seeded and cultured at […] (37 °C, 5% CO2) for 24 hrs. This culture fluid was removed therefrom by suction, culture fluids containing 1.5 mM of boron agent 3 with the boron concentrations of 3.0 mM, 1.5 mM, 18.0 mM, and 1.5 mM, respectively, were added and continued culturing for 24 h under the same conditions. These culture fluids were removed by suction and the cells were washed three times with PBS and treated with trypsin to recover the cells. The number of cells recovered was counted, and HNO3 (2N, 1.5 mL) was added and the resulting mixture was heated at 80 °C for 12 h. After filtering using a membrane filter, the boron concentration was determined by ICP-AES (Singapore).

rat FLS cells [6] = assay: Uptake of boron by rat fibroblast-like synoviocytes cells (ICP-AES); assay type: cell-based; conditions: 24 h culture with boron agent
Description: as §4, §5

[7] = Solubility in organic solvents; assay type: physicochemical; conditions: organic solvents such as DMF, THF and DMSO
Description: Carboranyl sinomenine product was synthesized by a straightforward method as shown in Scheme 1. In this process, sinomenine anion was generated in situ from the reaction of sinomenine (1) with the excess quantity of potassium carbonate in N,N-dimethyl formide (DMF) solvent at room temperature under argon atmosphere. The resulting sinomenine anion reacted with 4-(methyl-ortho-carboranyl)-n-butyl iodide (2), prepared according to the literature method, to produce the carboranyl sinomenine (3) as a colorless solid in 54.3% yield after recrystallization from tetrahydrofuran (THF) solvent.

**Q.** For `N[C@@H](Cc1ccc(B(O)O)cc1)C(=O)O` [L-BPA, 4-borono-L-phenylalanine], which “Boron amounts delivered to the cells” value (rat C6 glioma cells [1]) is on record?
**A.** Its value is 0.67 [21] μg/10^7 cells.

**Q.** What about the “Boron amounts delivered to the cells” value (rat FLS cells [2]) of the same compound?
**A.** The value was 0.74 [31] μg/10^7 cells.

**Q.** And the “Concentration in malignant cells relative to blood and other healthy cells” value (malignant cells)?
**A.** The value was 2–4 times.

**Q.** Which “Boron amounts delivered to the cells” value (rat C6 glioma cells [1]) does the source give for sodium borocaptate [BSH] here?
**A.** The value was 2.14 [21] μg/10^7 cells.

**Q.** And the “Boron amounts delivered to the cells” value (rat FLS cells [2])?
**A.** Its value is 1.82 [31] μg/10^7 cells.

**Q.** With “methylcarboranyl-n-butyl sinomenine [Compound 3]” as the compound, how does the Surviving fraction (rat C6 gliosarcoma cells; after thermal neutron irradiation for 50 min) read?
**A.** Its Surviving fraction is “around 0.01”.

**Q.** What about the “Killing effect improved compared with L-BPA” value (rat C6 gliosarcoma cells; thermal neutron irradiation, same operating conditions as L-BPA) of the same compound?
**A.** Its value is “approximately nine times”.

**Q.** What about the “Killing effects enhanced compared with L-BPA” value [3] of the same compound?
**A.** Its value is “approximately three times”.

**Q.** What about the IC50 (rat FLS cells [4]) of the same compound?
**A.** The IC50 was 310.4 ± 0.3 µM.

**Q.** What about the “Boron amounts delivered to the cells” value (rat C6 glioma cells [5]) of the same compound?
**A.** The value was 4.25 μg/10^7 cells.

**Q.** And the “Boron amounts delivered to the cells” value (rat FLS cells [6])?
**A.** The value was 3.04 μg/10^7 cells.

**Q.** What about the Solubility [7] of the same compound?
**A.** Its Solubility is “soluble in various organic solvents”.
